One may read the IC50 as the midpoint of a concentration-inhibition curve.

This note sets out measurements from publication PMC12998938, “Neutrophil store-operated Ca^2+ entry: A correctable biomarker of cystic fibrosis lung disease progression” (Journal of cystic fibrosis : official journal of the …, 2025).

The subject of assay [1] is ER Ca2+ store release in CF neutrophils. Description: Fluo-4 ER Ca2+ release, CF neutrophils. Type of assay: cell-based, human. As to conditions: 3 h pre-treatment, 1 μM thapsigargin, no extracellular Ca2+, 3 donors in triplicate, curves non-CF vs CF p<0.0001. As to the method: Isolated neutrophils were incubated with peptide or vehicle control for 3 h. For the final hour of treatment, cells were loaded with Fluo-4 direct (Thermofisher) for 45 min at 37°C and 15 min at room temperature as described.
Fig. 3. ELD607 inhibits SOCE in non-CF and CF neutrophils. (A) and (B) Mean changes in fluo-4 fluorescence as a marker of cytoplasmic Ca^2+ levels in non-CF and CF neutrophils respectively before and after stimulation with 1 μM thapsigargin (Tg). Before stimulation, neutrophils were exposed to vehicle (0.1% DMSO in PBS), 10 μM ELD607 or scrambled peptide (control) for 3 h. N = 10 non-CF and 21 CF donors. Stats show ELD607 vs vehicle or scrambled peptide based on color. […] Neutrophils were stimulated with thapsigargin (1 μM) in the absence of extracellular Ca^2+ to allow the release of Ca^2+ stores to be measured. Extracellular Ca^2+ was then returned so that extracellular Ca^2+ influx could be measured. (C) Mean fold change in Fluo-4 fluorescence during ER store release in non-CF and CF neutrophils. […] (E) Mean fold change in fluo-4 fluorescence during Ca^2+ influx in non-CF and CF neutrophils. […]
SOCE has 2 phases: release of Ca^2+ from ER stores and Ca^2+ influx from the extracellular space via Ca^2+ channels such as Orai1. […] Once the stores had emptied, extracellular Ca^2+ was reintroduced and Ca^2+ influx was measured (Fig. 3C–F). […]

Another assay has as its system CF neutrophils. The experiment in a line: Neutrophil degranulation multiplex assay, CF neutrophils. The assay is classed as cell-based, human. The conditions noted are these: 3 h, 1 μM thapsigargin 30 min, vs vehicle, paired t-test. Here is the method: Neutrophils were immediately isolated by negative selection from deidentified blood samples using an EasySep human neutrophil isolation kit (Stem Cell Technologies) as described. Cytosolic Ca^2+ was measured using Fluo-4 as described. Protein lysate from isolated blood neutrophils was characterized by liquid chromatography with tandem mass spectrometry (LC-MS/MS) as described. Degranulation products in media were quantified by Luminex assay using a custom Bio-Plex human kit (BioRad) per the manufacturer’s protocol […]. Detailed methods for all experiments and measurements are provided in an online data supplement.
Multiple neutrophil functions, including neutrophil degranulation, are Ca^2+ dependent. Neutrophil degranulation results in an increase in several proteases in the lung, including neutrophil elastase, a key driver of CF lung damage. Accordingly, we investigated the impact of ELD607 on neutrophil degranulation as a marker of Ca^2+-dependent neutrophilic function. We used a multiplex assay to quantify key granule proteins released into media after a 3 h pretreatment with 10 μM ELD607 or vehicle control followed by a 30 min stimulation with 1 μM thapsigargin. Levels of myeloperoxidase (MPO; primary granules), lactoferrin (specific granules) and matrix metalloproteinase-9 (MMP9; tertiary granules) release were similar between non-CF and CF neutrophils (Fig. 4A–C).
Fig. 4. ELD607 inhibits degranulation in non-CF and CF neutrophils. Neutrophil degranulation (A-C) was assayed by measuring the concentration of representative constituents of (A) primary granules, MPO (non-CF, n = 9; CF, n = 13); (B) secondary granules, lactoferrin (non-CF, n = 12; CF, n = 17) and (C) tertiary granules, MMP-9 (non-CF, n = 9; CF, n = 12). […]
Multiplex assay. […] Supernatant was collected and analyzed for a panel of neutrophil granule proteins (MPO, lactoferrin, MMP9) using a Bio-Plex human kit (BioRad) per the manufacturer’s protocol. Plates were then analyzed using a Bio-Plex MAGPIX System (BioRad).

The next assay concerns Orai2. Description: SOCE in triple knockout HEK293T cells transfected with Orai2. Type of assay: cell-based. The source says: We hypothesized that inhibiting SOCE in CF neutrophils may reduce the secretion of neutrophil elastase and other proteins associated with CF lung disease. To validate ELD607’s specificity for Orai1 over Orai2 and Orai3, we first evaluated ELD607 function in HEK293T cells that had Orai1, Orai2 and Orai3 stably knocked out. […] Next we evaluated ELD607’s ability to inhibit SOCE in non-CF and CF neutrophils.
Supplemental figure 3. […] Dose responses of thapsigargin-induced changes in cytoplasmic Ca^2+ concentrations. These studies were performed in HEK293T where Orai1, Orai2 and Orai3 had been stably knocked down (triple knockout cells, TKO) or in TKO cells that were transiently transfected with Orai1, Orai2 or Orai3 as indicated. All data are from 7-9 replicates per data point from 3 separate experiments.

Turning to “VHDIVNMLIRG [ELD607, size-optimized SPLUNC1/α6 peptidomimetic]”, the half-maximal inhibitory concentration (IC50) in assay [1] was found to be 0.413 µM. Moreover, the “MMP9 release (tertiary granules)” value in the assay on CF neutrophils (n = 12, 10 μM) is listed as “significantly reduced”. For the same sequence, in the assay on CF neutrophils (n = 13, 10 μM), the “MPO release (primary granules)” value is reported as “significantly reduced”. In addition, the “lactoferrin release (specific/secondary granules)” value with CF neutrophils (n = 17, 10 μM) is listed as “significantly reduced”. In addition, the “sensitivity of SOCE to ELD607” value in the assay with Orai2 (TKO + Orai2, thapsigargin, dose response, 7-9 replicates) is listed as “relatively insensitive”. Moreover, in the assay on Orai2 (discussion summary of supplemental figure 3), the “specificity for Orai1: effect on Orai2” value is “little effect on Orai2 and Orai3”.
